Data reported in US7388095B2, “5-substituted indole-2-carboxamide derivatives” (Hoffmann-La Roche Inc., priority 2005, dated 2008).

The compounds below were run against T1, histamine 3 receptor (H3R) (Homo sapiens, UniProt Q9Y5N1) (assay: Competition binding assay with 3H-(R)α-methylhistamine on membranes of the human HR3-CHO cell line). Settings: 3H(R)α-methylhistamine 1 nM, Ki calculated from IC50 by Cheng-Prusoff equation.
T1 construct: expressed in transfected cells; host or cells: CHO cells (HR3-CHO cell line), membrane preparation
Protocol: Binding assay with ^3H-(R)α-methylhistamine
Saturation binding experiments were performed using HR3-CHO membranes prepared as described in Takahashi, K, Tokita, S., Kotani, H. (2003) J. Pharmacol. Exp. Therapeutics 307, 213-218.
An appropriate amount of membrane (60 to 80 μg protein/well) was incubated with increasing concentrations of ^3H(R)α-Methylhistamine di-hydrochloride (0.10 to 10 nM). Non-specific binding was determined using a […] excess of cold (R)α-methylhistamine dihydrobromide (500 nM final concentration). The incubation was carried out at room temperature (in deep-well plates shaking for three hours). The final volume in each well was 250 μl. The incubation was followed by rapid filtration on GF/B filters (pre-soaked with 100 μl of 0.5% PEI in Tris 50 mM shaking at 200 rpm for two hours). The filtration was made using a cell-harvester and the filter plates were then washed five times with ice cold washing buffer containing 0.5 M NaCl. After harvesting, the plates were dried at 55° C. for 60 min, then scintillation fluid (Microscint 40, 40 microl in each well) was added and the amount of radioactivity on the filter was determined with a Packard top-counter after shaking the plates for two hours at 200 rpm at room temperature.
Binding Buffer: 50 mM Tris-HCl pH 7.4 and 5 mM MgCl2x6H2O pH 7.4. Washing Buffer: 50 mM Tris-HCl pH 7.4 and 5 mM MgCl2x6H2O and 0.5 M NaCl pH 7.4.
Indirect measurement of affinity of H3R inverse agonists: twelve increasing concentrations (ranging from 10 μM to 0.3 nM) of the selected compounds were always tested in competition binding experiments using membrane of the human HR3-CHO cell line. An appropriate amount of protein, e.g. approximately 500 cpm binding of RAMH at Kd, were incubated for 1 hour at room temperature in 250 μl final volume in 96-well plates in presence of ^3H(R)α-methylhistamine (1 nM final concentration=Kd). […]
All compounds were tested at a single concentration in duplicates. […] Ki's were calculated from IC50 based on Cheng-Prusoff equation (Cheng, Y, Prusoff, W H (1973) Biochem Pharmacol 22, 3099-3108).

T1 sequence (Q9Y5N1 whole entry): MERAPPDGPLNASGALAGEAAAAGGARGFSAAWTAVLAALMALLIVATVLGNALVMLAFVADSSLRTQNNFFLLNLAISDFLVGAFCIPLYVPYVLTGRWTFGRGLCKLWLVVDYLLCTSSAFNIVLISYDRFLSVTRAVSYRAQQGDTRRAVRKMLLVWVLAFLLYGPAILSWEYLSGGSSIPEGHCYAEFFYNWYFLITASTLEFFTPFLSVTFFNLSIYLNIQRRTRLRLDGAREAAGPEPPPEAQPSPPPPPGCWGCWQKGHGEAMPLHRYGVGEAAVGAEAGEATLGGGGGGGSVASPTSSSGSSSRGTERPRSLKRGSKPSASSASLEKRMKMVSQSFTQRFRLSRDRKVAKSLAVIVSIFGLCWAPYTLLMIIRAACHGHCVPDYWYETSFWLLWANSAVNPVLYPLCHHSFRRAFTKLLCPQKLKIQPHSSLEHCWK

Ki	Compound
26 nM	O=C(c1cc2cc(OCCCN3CC4CC4C3)ccc2n1CC(F)(F)F)N1CCOCC1 (stereo not drawn) [Example 6, [5-[3-(3-Aza-bicyclo[3.1.0]hex-3-yl)-propoxy]-1-(2,2,2-trifluoro-ethyl)-1H-indol-2-yl]-morpholin-4-yl-methanone]
40 nM	O=C(c1cc2cc(OCCCN3CC4CC4C3)ccc2[nH]1)N1CCOCC1 (stereo not drawn) [Example 5, {5-[3-(3-Aza-bicyclo[3.1.0]hex-3-yl)-propoxy]-1H-indol-2-yl}-morpholin-4-yl-methanone]
30 nM	CC(C)N1CCOC(COc2ccc3c(c2)cc(C(=O)N2CCOCC2)n3CC(F)(F)F)C1 (stereo not drawn) [Example 1, [5-(4-Isoopropyl-morpholin-2-ylmethoxy)-1-(2,2,2-trifluoro-ethyl)-1H-indol-2-yl]-morpholin-4-yl-methanone]
